Our source for the inhibition, IC50 and trolox equivalent values is ChEMBL document CHEMBL1250510, “2,3-diarylxanthones as strong scavengers of reactive oxygen and nitrogen species: a structure-activity relationship study” (Bioorg Med Chem, 2010).

One may read the inhibition as the drop in the measured response relative to a control, in per cent. In general, IC50 refers to the point on the concentration scale where inhibition reaches its midpoint.

Active and inactive are the calls of the source. The rule behind the calls is not given here.

Format in all cases: functional
The nature of experiment [1]: Antioxidant activity assessed as superoxide radical scavenging activity at 200 uM by spectrophotometry.
Experiment [2] is described as follows: Antioxidant activity assessed as hydrogen peroxide scavenging activity at 125 uM by spectrophotometry.
Experiment [3] is described as follows: Antioxidant activity assessed as hypocholrous acid scavenging activity by spectrophotometry.
The nature of experiment [4]: Antioxidant activity assessed as nitric oxide scavenging activity by spectrophotometry.
Experiment [5] can be described thus: Antioxidant activity assessed as peroxynitrite scavenging activity by spectrophotometry in presence of NaHCO3.
A short description of experiment [6]: Antioxidant activity assessed as peroxynitrite scavenging activity by spectrophotometry in absence of NaHCO3.
Experiment [7] is described as follows: Antioxidant activity assessed as singlet oxygen scavenging activity at 100 uM by spectrophotometry.
Experiment [8] can be described thus: Antioxidant activity assessed as peroxyl radical scavenging activity assessed as trolox equivalent by spectrophotometry.
Experiment [9] in a line: Antioxidant activity assessed as nitric oxide scavenging activity at 200 uM by spectrophotometry.
Experiment [10] in a line: Antioxidant activity assessed as superoxide radical scavenging activity at 25 uM by spectrophotometry.
A short description of experiment [11]: Antioxidant activity assessed as peroxynitrite scavenging activity at 50 uM by spectrophotometry in presence of NaHCO3.
The nature of experiment [12]: Antioxidant activity assessed as peroxynitrite scavenging activity at 50 uM by spectrophotometry in absence of NaHCO3.
The nature of experiment [13]: Antioxidant activity assessed as peroxyl radical scavenging activity assessed as trolox equivalent at 1 uM by spectrophotometry.
The nature of experiment [14]: Antioxidant activity assessed as superoxide radical scavenging activity by spectrophotometry.
Experiment [15] is described as follows: Antioxidant activity assessed as hydrogen peroxide scavenging activity at 250 uM by spectrophotometry.
Experiment [16] is described as follows: Antioxidant activity assessed as singlet oxygen scavenging activity by spectrophotometry.
The nature of experiment [17]: Antioxidant activity assessed as hydrogen peroxide scavenging activity by spectrophotometry.

`O=c1c2ccccc2oc2cc(-c3ccccc3)c(-c3ccc(O)cc3)cc12`: the inhibition entry in [1] and in experiment [2] was “inactive” each time. Moreover, the IC50 was 72100 nM in experiment [3]; 175000 nM in [4]; 1550 nM in [5]; 1800 nM in experiment [6]; 80000 nM in [7]. Also, the trolox equivalent in experiment [8] stood at 1.05.
On to `O=c1c2ccccc2oc2cc(-c3ccc(O)cc3)c(-c3ccccc3)cc12`, for which the inhibition entry in experiment [1] and in experiment [2] was “inactive” each time. Also, the IC50 in experiment [3] is 53800 nM; in experiment [5] it was 2660 nM; in [6], 2000 nM; in experiment [7], 68800 nM. Also, the inhibition in experiment [9] is 41%. Besides, the trolox equivalent in experiment [8] was 2.08.
Take `O=c1c2ccccc2oc2cc(-c3ccccc3)c(-c3ccccc3)cc12`: the inhibition entry in experiment [10], in [2] and in [13] was “inactive” throughout. Moreover, the IC50 in experiment [3] came out at 155000 nM. The inhibition turned out to be 39% in experiment [9], 29% in experiment [11], 48% in experiment [12] and 27% in [7].
Take `O=c1c2ccccc2oc2cc(-c3ccc(O)c(O)c3)c(-c3ccc(O)cc3)cc12`: the IC50 in [14] stood at 31300 nM; in [3] it was 7500 nM; in experiment [4], 620 nM; in experiment [5], 220 nM; in [6], 890 nM; in experiment [7] it was 6800 nM. The inhibition in experiment [15] came to 12%. Further, the trolox equivalent in experiment [8] stood at 0.83.
As to `O=c1c2ccccc2oc2cc(-c3ccc(O)cc3)c(-c3ccc(O)cc3)cc12`, the IC50 in [14] was 166000 nM; in experiment [3], 22400 nM; in experiment [4], 108000 nM; in experiment [5], 1720 nM; in [6] it was 970 nM; in experiment [7] it was 58400 nM. Also, the inhibition entry in experiment [2] was “inactive”. In addition, the trolox equivalent in experiment [8] was 2.88.
Consider `O=c1c(O)c(-c2ccc(O)c(O)c2)oc2cc(O)cc(O)c12` [QUERCETIN], for which the IC50 in experiment [16] amounted to 1800 nM.
Regarding `O=C1O[C@H]([C@@H](O)CO)C(O)=C1O` [ASCORBIC ACID], the figures for the IC50 in experiment [17] and in experiment [8] were 602000 nM and 220 nM, respectively.
With `O=c1c2ccccc2oc2cc(-c3ccc(O)c(O)c3)c(-c3ccc(O)c(O)c3)cc12`, the IC50 in experiment [14] worked out at 10400 nM; in experiment [3], 1200 nM; in experiment [4], 390 nM; in experiment [5] it was 170 nM; in experiment [6] it was 330 nM; in experiment [7], 2500 nM. Further, in [15], the inhibition worked out at 17%. Also, in experiment [8], the trolox equivalent came to 0.28.
On to `O=S(=O)(O)c1cc(O)c(O)c(S(=O)(=O)O)c1` [TIRON], for which the IC50 in experiment [14] is 273000 nM.
As to `O=c1c2ccccc2[se]n1-c1ccccc1` [EBSELEN], the IC50 is 500 nM in experiment [5] and 2010 nM in [6].
In the case of `O=C(O)CCCC[C@@H](S)CCS` [DIHYDROLIPOIC ACID], the IC50 in [3] is 2300 nM.
On to `O=c1c2ccccc2oc2cc(-c3ccc(O)c(O)c3)c(-c3ccccc3)cc12`, for which the IC50 is 76000 nM in experiment [14]; 10800 nM in experiment [3]; 1220 nM in experiment [4]; 370 nM in experiment [5]; 670 nM in experiment [6]; 4500 nM in experiment [7]. Further, the inhibition in experiment [15] was 9%. Also, the trolox equivalent in experiment [8] amounted to 0.84.
As for `O=c1c2ccccc2oc2cc(-c3ccccc3)c(-c3ccc(O)c(O)c3)cc12`, the IC50 in experiment [14] is 28100 nM; in experiment [3] it was 15700 nM; in experiment [4], 1880 nM; in experiment [5], 400 nM; in [6], 540 nM; in [7], 6000 nM. Further, the inhibition in [15] is 9%. Moreover, in experiment [8], the trolox equivalent was 0.76.
Regarding `O=c1c2ccccc2oc2cc(-c3ccc(O)cc3)c(-c3ccc(O)c(O)c3)cc12`, the IC50 in [14] is 20300 nM; in experiment [3], 14700 nM; in [4], 420 nM; in experiment [5], 260 nM; in experiment [6], 780 nM; in experiment [7], 3300 nM. In experiment [15], the inhibition was determined as 14%. Further, in [8], the trolox equivalent was found to be 0.88.
Regarding `C[C@@H]1O[C@@H](OC[C@H]2O[C@@H](Oc3c(-c4ccc(O)c(O)c4)oc4cc(O)cc(O)c4c3=O)[C@H](O)[C@@H](O)[C@@H]2O)[C@H](O)[C@H](O)[C@H]1O` [RUTIN], in [4], the IC50 worked out at 2530 nM.
